Laboratory results as given in ChEMBL document CHEMBL1201862, “PubChem BioAssay data set” (2004).
The source made the active and inactive calls.

Assays:
[1] = tested on: P388/ADR; test: cells; format: functional; conditions: Mus musculus
[2] = tested on: SN12K1; test: cells; format: functional; conditions: Homo sapiens
[3] = tested on: P388; test: cells; format: functional; conditions: Mus musculus
[4] = Luminescence Cell-Based Dose Confirmation HTS to Identify Activators of 5'UTR Stem-Loop Driven Alpha-Synuclein mRNA Translation in H4 Neuroglioblastoma Cells. [Related pubchem assays: 1829 (Project Summary), 1814 (Primary HTS)]; format: functional
[5] = Luminescence Cell-Based Dose Response HTS to Identify Activators of Luciferase Translation or Activity in H4 […] Cells. [Related pubchem assays: 1829 (Project Summary), 1814 (Primary HTS)]; format: functional
[6] = tested on: BJ; test: cytotoxicity toward BJ-TERT fibroblasts, dose response, cell-based, RAS-independent, luminescence (AID 1933); format: functional; conditions: Homo sapiens
[7] = tested on: H4; test: Luminescence Cell-Based Dose Response HTS to Identify Activators of 5'UTR Stem-Loop Driven Prion Protein mRNA Translation in H4 Neuroglioblastoma Cells. [Related pubchem assays: 1829 (Project Summary), 1814 (Primary HTS)]; format: functional; conditions: Homo sapiens
[8] = tested on: BJ; test: cells; format: functional, cell-based; conditions: Homo sapiens
[9] = tested on: BJ; test: cytotoxicity toward BJ-TERT-LT-ST fibroblasts, dose response, cell-based, RAS-independent, luminescence (AID 1935); format: functional; conditions: Homo sapiens;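 further: BJ fibroblasts immortalized with TERT plus LT and ST oncogenes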
[10] = cytotoxicity toward DRD oncogenic fibroblasts, dose response, cell-based, non-viral oncogenic, luminescence (AID 1934); format: functional; conditions: Homo sapiens
[11] = Luminescence Cell-Based Dose Retest to Confirm Inhibitors of Cancer Stem Cells. [Related pubchem assays (depositor defined):AID2717, AID2721]; format: functional; conditions: Homo sapiens
[12] = biological target: T1, Microphthalmia-associated transcription factor (Homo sapiens, UniProt O75030); test: TRPM1 promoter luciferase signal decrease, dose response, MITF inhibitor project, cell-based, SK-MEL-5, cherry-picked, set 3 (AID 493073); format: functional
T1 sequence (O75030 whole entry): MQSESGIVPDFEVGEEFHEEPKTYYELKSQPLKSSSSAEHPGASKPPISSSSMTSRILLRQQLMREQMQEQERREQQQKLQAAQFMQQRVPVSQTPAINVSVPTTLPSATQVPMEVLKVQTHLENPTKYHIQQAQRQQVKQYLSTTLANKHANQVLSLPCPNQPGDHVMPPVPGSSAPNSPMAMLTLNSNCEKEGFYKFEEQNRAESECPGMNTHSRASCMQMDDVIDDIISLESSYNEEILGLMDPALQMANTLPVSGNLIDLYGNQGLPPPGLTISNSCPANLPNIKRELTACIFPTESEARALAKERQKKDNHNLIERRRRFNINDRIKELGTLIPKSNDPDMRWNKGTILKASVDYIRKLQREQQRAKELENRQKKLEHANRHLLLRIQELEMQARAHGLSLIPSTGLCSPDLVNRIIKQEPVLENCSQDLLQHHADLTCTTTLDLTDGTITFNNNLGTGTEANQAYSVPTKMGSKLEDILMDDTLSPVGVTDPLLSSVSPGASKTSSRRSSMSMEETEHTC

[13] = tested on: BJ; test: cytotoxicity toward Ras-transformed BJeLR fibroblasts, dose response, cell-based, alamar blue fluorescence, cherrypicked samples (AID 2631); format: functional; conditions: Homo sapiens;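 further: confirmatory dose-response assay in RAS-dependent BJ fibroblasts engineered with TERT, LT and ST, with cytotoxicity read by fluorescence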
[14] = tested on: INS1; test: beta cell apoptosis inhibitors, cytokine rescue, dose response, luminescence, retest (AID 449756); format: functional, cell-based; conditions: Rattus norvegicus;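 further: cell death triggered by IL-1 beta plus TNF-alpha plus IFN-gamma mixture; protective hits raise ATP signal compared with cytokine alone wells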
[15] = Shn3 3'UTR reporter inhibitors, dose response, cell-based, Clone20 osteoblasts, firefly luciferase, cherry-picked (AID 624132); format: functional;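 further: firefly luciferase luminescence from reporter carrying the Shn3 3'UTR in osteoblasts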
[16] = biological target: Cytochrome P450 2C19 (Homo sapiens, UniProt P33261); test: Cytochrome panel assay with activity outcomes. Panel member name: p450-cyp2c19 Compounds with AC50 equal or less than 10 uM are considered active; format: functional; conditions: read-out: AC50
Cytochrome P450 2C19, sequence (P33261 whole entry): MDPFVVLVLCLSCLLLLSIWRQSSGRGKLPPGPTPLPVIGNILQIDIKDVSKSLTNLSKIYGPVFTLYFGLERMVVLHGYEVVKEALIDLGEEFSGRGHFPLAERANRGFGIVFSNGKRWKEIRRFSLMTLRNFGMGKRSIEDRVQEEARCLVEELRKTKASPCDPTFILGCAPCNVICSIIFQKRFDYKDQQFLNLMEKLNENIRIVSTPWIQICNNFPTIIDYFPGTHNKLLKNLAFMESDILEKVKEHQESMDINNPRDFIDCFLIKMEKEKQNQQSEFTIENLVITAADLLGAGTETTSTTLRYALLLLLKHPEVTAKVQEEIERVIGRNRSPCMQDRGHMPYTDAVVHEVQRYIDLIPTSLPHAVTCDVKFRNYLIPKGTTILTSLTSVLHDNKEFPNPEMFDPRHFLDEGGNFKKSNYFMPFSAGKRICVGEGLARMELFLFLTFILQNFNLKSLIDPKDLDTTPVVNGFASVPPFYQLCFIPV

[17] = biological target: Cytochrome P450 3A4 (Homo sapiens, UniProt P08684);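 further: CYP3A4 tested as one member of a cytochrome P450 panel screen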
Cytochrome P450 3A4, sequence (P08684 whole entry): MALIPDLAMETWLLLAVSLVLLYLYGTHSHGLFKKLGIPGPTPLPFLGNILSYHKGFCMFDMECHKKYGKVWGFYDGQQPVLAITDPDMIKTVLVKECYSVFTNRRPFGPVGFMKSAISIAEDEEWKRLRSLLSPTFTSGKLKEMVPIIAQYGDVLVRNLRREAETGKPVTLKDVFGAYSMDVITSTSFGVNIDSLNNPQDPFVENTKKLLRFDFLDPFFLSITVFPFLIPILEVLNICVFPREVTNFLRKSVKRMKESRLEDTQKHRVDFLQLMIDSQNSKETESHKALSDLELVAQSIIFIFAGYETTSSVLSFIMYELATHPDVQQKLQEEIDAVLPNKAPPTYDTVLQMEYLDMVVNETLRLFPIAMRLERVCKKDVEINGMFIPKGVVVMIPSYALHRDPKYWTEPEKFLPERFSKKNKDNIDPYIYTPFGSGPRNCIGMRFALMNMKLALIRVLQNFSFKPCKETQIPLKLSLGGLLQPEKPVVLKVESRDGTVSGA

[18] = biological target: T2, E3 ubiquitin-protein ligase XIAP (Homo sapiens, UniProt P98170); test: Counter Screen using XIAP-Bir3 for Chemical Antagonists of Bir1/2 domains of IAP-family anti-apoptotic proteins. [Related pubchem assays (depositor defined):AID1018, AID1449, AID1514, AID1638, AID1749, AID1750, AID488957, AID488963]
T2 sequence (P98170 whole entry): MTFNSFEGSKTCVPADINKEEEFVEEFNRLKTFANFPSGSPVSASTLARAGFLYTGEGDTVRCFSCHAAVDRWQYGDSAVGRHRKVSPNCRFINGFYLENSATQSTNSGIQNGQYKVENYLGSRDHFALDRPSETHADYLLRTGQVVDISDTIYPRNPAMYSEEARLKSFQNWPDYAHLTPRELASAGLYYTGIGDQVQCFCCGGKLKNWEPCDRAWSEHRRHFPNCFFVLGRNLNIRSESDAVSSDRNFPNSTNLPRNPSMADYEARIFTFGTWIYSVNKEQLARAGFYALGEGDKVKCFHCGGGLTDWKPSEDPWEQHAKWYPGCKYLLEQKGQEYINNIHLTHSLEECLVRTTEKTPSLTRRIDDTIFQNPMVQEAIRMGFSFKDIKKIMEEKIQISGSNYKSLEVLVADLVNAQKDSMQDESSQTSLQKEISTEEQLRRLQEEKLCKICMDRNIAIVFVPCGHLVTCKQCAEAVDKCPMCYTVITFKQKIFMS

[19] = biological target: T2, E3 ubiquitin-protein ligase XIAP; test: XIAP antagonists, biochemical, IAP family, fluorescence polarization (AID 1018); format: functional
[20] = inhibitors of intracellular T. cruzi replication, confirmation, NIH3T3 host cells, beta-gal luminescence (AID 2044); format: functional, cell-based;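 further: intracellular parasites grown in NIH/3T3 mouse fibroblasts as host cells; luminescent beta-galactosidase reporter signal from transgenic T. cruzi replicating inside host cells; inhibitors lower the luminescence signal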
[21] = cytotoxicity toward NIH3T3 fibroblasts, dose response, counter-screen, cell-based, ATP luminescence, mouse fibroblasts (AID 2010); format: functional;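 further: cells exposed to compound for about 90 hours before reading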
[22] = biological target: T3, Carboxy-terminal domain RNA polymerase II polypeptide A small phosphatase 1 (Homo sapiens, UniProt Q9GZU7); test: inhibitors of CTDSP1, concentration-response testing, biochemical assay, absorbance-based, actives from ultra-high-throughput screening (AID 540297); format: functional
T3 sequence (Q9GZU7 whole entry): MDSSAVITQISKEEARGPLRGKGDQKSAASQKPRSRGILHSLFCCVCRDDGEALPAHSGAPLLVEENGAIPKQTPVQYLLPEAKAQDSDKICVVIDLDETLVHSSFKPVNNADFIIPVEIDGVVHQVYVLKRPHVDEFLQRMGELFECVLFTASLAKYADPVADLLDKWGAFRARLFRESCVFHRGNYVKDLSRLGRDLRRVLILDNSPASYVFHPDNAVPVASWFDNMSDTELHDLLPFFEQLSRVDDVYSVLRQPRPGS

[23] = biological target: 26S proteasome non-ATPase regulatory subunit 14 (Homo sapiens, UniProt O00487); test: inhibition of proteasome subunit RPN11 – biochemical, fluorescence polarization, uHTS hits, confirmation (AID 602368); format: functional
26S proteasome non-ATPase regulatory subunit 14, sequence (O00487 whole entry): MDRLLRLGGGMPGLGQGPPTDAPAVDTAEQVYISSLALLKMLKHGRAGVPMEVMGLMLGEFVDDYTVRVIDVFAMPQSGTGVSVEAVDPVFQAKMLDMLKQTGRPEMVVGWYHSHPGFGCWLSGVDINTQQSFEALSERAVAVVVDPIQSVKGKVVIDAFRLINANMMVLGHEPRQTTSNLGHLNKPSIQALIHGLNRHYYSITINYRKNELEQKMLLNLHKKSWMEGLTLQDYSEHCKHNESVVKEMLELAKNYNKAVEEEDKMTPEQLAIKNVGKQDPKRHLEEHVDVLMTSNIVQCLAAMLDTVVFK

[24] = biological target: 72 kDa type IV collagenase (Homo sapiens, UniProt P08253); test: Dose Response validation of uHTS RPN11 inhibitor hits using a MMP-2 Fluorescence assay.; format: functional
72 kDa type IV collagenase, sequence (P08253 whole entry): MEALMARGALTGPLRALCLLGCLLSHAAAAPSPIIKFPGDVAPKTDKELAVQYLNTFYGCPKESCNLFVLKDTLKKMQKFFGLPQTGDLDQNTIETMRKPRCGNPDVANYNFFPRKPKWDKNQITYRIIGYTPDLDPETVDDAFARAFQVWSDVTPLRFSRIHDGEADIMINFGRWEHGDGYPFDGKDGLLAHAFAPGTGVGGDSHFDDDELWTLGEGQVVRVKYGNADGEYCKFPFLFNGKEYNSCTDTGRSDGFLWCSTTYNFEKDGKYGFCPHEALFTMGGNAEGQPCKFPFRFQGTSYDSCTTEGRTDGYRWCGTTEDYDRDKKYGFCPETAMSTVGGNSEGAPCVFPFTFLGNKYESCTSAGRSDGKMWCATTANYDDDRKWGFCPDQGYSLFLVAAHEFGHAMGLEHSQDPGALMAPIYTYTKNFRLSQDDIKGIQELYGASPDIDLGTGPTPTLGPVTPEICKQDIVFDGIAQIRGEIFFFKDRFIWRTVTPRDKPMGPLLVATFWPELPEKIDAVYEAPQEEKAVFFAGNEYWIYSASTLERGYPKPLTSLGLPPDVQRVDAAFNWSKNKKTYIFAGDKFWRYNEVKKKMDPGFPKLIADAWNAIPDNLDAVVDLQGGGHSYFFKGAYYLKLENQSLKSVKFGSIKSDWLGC

[25] = biological target: Prothrombin (Bos taurus, UniProt P00735); test: thrombin inhibition, dose response, biochemical, fluorescence polarization, uHTS hits (AID 602369); format: functional
[26] = biological target: T4, Hexokinase (Trypanosoma brucei, UniProt Q38C41); test: Confirmation assay for inhibitors of Trypanosoma brucei hexokinase 1-Analogue-first series. [Related pubchem assays (depositor defined):AID1430, AID1632, AID2516, AID2560, AID2579, AID2600, AID449725, AID492951]; format: functional
T4 sequence (Q38C41 whole entry): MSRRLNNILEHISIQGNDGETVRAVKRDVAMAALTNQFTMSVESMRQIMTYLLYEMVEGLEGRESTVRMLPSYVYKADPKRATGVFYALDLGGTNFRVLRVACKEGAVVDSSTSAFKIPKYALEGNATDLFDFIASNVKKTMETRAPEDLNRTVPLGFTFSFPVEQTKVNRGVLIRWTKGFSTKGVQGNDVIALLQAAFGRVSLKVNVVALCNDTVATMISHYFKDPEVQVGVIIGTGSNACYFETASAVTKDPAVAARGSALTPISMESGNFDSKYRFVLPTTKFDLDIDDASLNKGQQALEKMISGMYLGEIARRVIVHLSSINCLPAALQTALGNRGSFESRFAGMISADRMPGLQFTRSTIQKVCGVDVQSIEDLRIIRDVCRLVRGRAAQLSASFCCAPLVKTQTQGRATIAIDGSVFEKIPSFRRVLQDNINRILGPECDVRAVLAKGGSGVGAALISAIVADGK

In the case of O=C(CCl)NC(Cc1ccc(F)cc1)C(=O)O (configuration not stated), the GI50 [1] is reported as > 100 µM (inactive), the GI50 [2] is reported as > 100 µM (inactive) and the GI50 [3] is reported as > 100 µM (inactive).

For CCN(CC)Cc1c(O)ccc2c1O/C(=C\C=C\c1ccccc1)C2=O, the EC50 [4] was 16.5 µM (active), the EC50 [5] was 29.6 µM (active) and the EC50 [6] was > 150 µM (not active). For the same compound, the EC50 [7] was > 120 µM (not active), the EC50 [8] was > 150 µM (not active) and the EC50 [9] was > 150 µM (inconclusive). For the same compound, the EC50 [10] was 55.7 µM (active), the AC50 [11] was 16.6 µM (active) and the AC50 [12] was 47.6 µM (active). For the same compound, the EC50 [13] was > 133 µM (inactive), the AC50 [14] was > 120 µM (inactive) and the AC50 [15] was 1.96 µM (active).

With Cc1c2ccnc(C(F)(F)F)c2cc2c1[nH]c1ccccc12 the GI50 [1] was 78.9 µM (inactive), the GI50 [2] was 58.5 µM (inactive) and the GI50 [3] was > 125 µM (inactive).

For O=C(C1CCN(S(=O)(=O)N2CCOCC2)CC1)N1CCN(Cc2ccccc2)CC1, the AC50 [16] was 14.1 µM (inconclusive) and the AC50 [17] was “inconclusive”.

For CN(C)CCCn1c(-c2ccccc2)nc(=S)c2c1CCCC2, the IC50 [18] was > 100 µM (inactive), the IC50 [19] was > 100 µM (not active) and the EC50 [20] was 0.697 µM (active). For the same compound, the EC50 [21] was > 60 µM (not active).

In the case of Cc1cc(Cl)ccc1OCC(=O)Nc1ccccc1CO, the IC50 [18] is reported as > 100 µM (inactive) and the IC50 [19] is reported as > 100 µM (not active).

With Cc1ccc(CSCC(=O)N/N=C/c2ccc(OCC(=O)Nc3ccc(C)cc3)cc2)cc1 the IC50 [22] was 3.43 µM (active), the IC50 [23] was 11.9 µM (active) and the IC50 [24] was > 100 µM (inactive). For the same compound, the IC50 [25] was 96.9 µM (active).

With CC(C)(C)c1ccc(C(=O)Nc2cc(Cl)c(F)cc2C(=O)O)cc1 the IC50 [26] was 2.79 µM (active).

In the case of CC(O)C(O)C(N)CC=O (configuration not stated), the GI50 [1] is reported as > 500 µM (inactive), the GI50 [2] is reported as > 500 µM (inactive) and the GI50 [3] is reported as > 500 µM (inactive).

With COc1ccccc1NC(=O)CCc1nc2sc3c(c2c(=O)[nH]1)CCCC3 the IC50 [23] was 33.1 µM (active), the IC50 [24] was > 100 µM (inactive) and the IC50 [25] was 47.9 µM (active).
